Experimental data from patent publication US20090149375A1, “USE OF THE MST PROTEIN FOR THE TREATMENT OF A THROMBOEMBOLIC DISORDER” (SANOFI-AVENTIS, priority 2005, published 2009).

Target: T1, GST-Mst1 (Homo sapiens, UniProt Q13043)
T1 sequence (Q13043 1-487): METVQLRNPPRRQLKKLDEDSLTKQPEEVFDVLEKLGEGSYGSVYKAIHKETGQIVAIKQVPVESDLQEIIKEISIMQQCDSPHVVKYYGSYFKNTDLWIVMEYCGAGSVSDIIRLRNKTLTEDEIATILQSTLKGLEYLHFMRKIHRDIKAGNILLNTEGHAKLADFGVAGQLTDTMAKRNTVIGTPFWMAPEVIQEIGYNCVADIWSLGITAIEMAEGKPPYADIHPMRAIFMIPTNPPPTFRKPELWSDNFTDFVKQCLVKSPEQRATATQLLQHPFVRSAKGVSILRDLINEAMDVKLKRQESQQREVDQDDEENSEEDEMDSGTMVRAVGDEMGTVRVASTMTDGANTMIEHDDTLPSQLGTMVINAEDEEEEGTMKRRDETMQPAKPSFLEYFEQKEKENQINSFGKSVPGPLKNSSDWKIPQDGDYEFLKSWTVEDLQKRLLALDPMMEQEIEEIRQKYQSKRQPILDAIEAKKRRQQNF
Experiment: GST-Mst1 in vitro kinase assay (ATP consumption assay)
Conditions: result in words

Structure (SMILES): CN[C@@H]1C[C@H]2O[C@@](C)([C@@H]1OC)n1c3ccccc3c3c4c(c5c6ccccc6n2c5c31)C(=O)NC4 [staurosporine]
- inhibition of MST1 kinase activity (ATP consumption): completely inhibit
- inhibition of MST1 kinase activity (ATP consumption) (listed as Staurosporine): inhibit completely
